Measured values taken from ChEMBL document CHEMBL5380809, “Discovery of Novel N-Hydroxy-1,2,4-oxadiazole-5-formamides as ASM Direct Inhibitors for the Treatment of Atherosclerosis” (J Med Chem, 2023).
pIC50: −log10 of the molar value. Calls of active or inactive are those of the source. The rule behind the calls is not given here.

Key:
[1] = target: T1, Sphingomyelin phosphodiesterase (Homo sapiens, UniProt P17405); assay: Inhibition of recombinant human aSMase (62 to 628 residues) using HMU-PC as substrate incubated for 2 hrs by fluorescence based assay
T1 sequence (P17405 whole entry): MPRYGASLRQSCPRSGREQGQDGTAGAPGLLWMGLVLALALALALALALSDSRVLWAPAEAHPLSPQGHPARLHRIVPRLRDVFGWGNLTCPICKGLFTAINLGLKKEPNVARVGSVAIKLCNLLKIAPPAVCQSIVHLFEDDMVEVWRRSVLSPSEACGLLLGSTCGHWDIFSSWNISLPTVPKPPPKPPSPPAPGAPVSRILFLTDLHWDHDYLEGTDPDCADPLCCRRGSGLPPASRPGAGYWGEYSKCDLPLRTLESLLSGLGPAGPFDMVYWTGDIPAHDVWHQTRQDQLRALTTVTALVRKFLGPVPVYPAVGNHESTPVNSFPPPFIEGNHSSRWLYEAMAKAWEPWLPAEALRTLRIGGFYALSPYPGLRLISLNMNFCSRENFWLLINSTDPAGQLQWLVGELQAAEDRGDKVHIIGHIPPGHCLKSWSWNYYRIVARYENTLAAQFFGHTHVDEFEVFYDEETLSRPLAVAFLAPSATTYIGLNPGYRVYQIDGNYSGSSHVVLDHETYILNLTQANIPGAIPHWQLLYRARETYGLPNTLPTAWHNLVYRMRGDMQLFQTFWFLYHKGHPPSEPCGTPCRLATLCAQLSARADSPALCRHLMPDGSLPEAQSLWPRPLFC

[2] = tested on: HUVEC; assay: Cytotoxicity against HUVEC cells assessed as cell growth inhibition at 0.5 to 20 uM incubated for 24 to 48 hrs by MTT assay; format: toxicity, cell-based; details: human, dose lower 0.5 µM, time lower 24 hrs, dose upper 20 µM, time upper 48 hrs
[3] = AUC (0 to infinity ) in ICR mouse at 1 mg/kg, iv measured for 0.083 to 24 hrs by LC-MS/MS analysis; format: ADME, organism-based; set-up: time upper 24 hrs, time lower 0.083 hrs, dose 1 mg/kg, route iv; details: in vivo
[4] = MRT (0 to t) in ICR mouse at 1 mg/kg, iv measured for 0.083 to 24 hrs by LC-MS/MS analysis; format: ADME, organism-based; details: in vivo, time 0.083-24 hrs
[5] = AUC (0 to infinity) in ICR mouse at 10 mg/kg, po measured for 0.083 to 24 hrs by LC-MS/MS analysis; format: ADME, organism-based; set-up: time lower 0.083 hrs, dose 10 mg/kg, time upper 24 hrs, route po; details: in vivo
[6] = MRT (0 to infinity) in ICR mouse at 10 mg/kg, po measured for 0.083 to 24 hrs by LC-MS/MS analysis; format: ADME, organism-based; details: in vivo, time 0.083-24 hrs
[7] = In vivo inhibition of aSMase in C57BL/6 mouse assessed as decrease in liver aSMase level at 40 mg/kg, ip bid for 1 week by ELISA method relative to control; format: functional; set-up: scale not given: the % may be the effect or the level left; details: time 1 weeks
[8] = tested on: Mus musculus; assay: In vivo inhibition of aSMase in C57BL/6 mouse assessed as decrease in plasma S1P level at 6 to 40 mg/kg, ip bid for 1 week by ELISA method; format: functional, organism-based; details: dose 6-40 mg/kg, time 1.0 weeks
[9] = tested on: Mus musculus; assay: Antiatherosclerotic activity in high-fat diet fed ApoE-/- mouse assessed as reduction in aortic arch lipid accumulation at 12 to 40 mg/kg, ip bid measured after 8 weeks; format: functional, organism-based; details: dose 12-40 mg/kg
[10] = tested on: Mus musculus; assay: Antiatherosclerotic activity in high-fat diet fed ApoE-/- mouse assessed as reduction in plasma total cholesterol level at 12 to 40 mg/kg, ip bid measured after 8 weeks; format: functional, organism-based; details: dose 12-40 mg/kg
[11] = tested on: Mus musculus; assay: Antiatherosclerotic activity in high-fat diet fed ApoE-/- mouse assessed as reduction in plasma LDL-C level at 12 to 40 mg/kg, ip bid measured after 8 weeks; format: functional, organism-based; details: dose 12-40 mg/kg
[12] = tested on: Mus musculus; assay: Antiatherosclerotic activity in high-fat diet fed ApoE-/- mouse assessed as reduction in plasma ceramide level administered intraperitoneally twice daily measured after 8 weeks by ELISA method; format: functional, organism-based; details: dose 12-40 mg/kg, route ip
[13] = tested on: HUVEC; assay: Antiinflammatory activity against HUVEC cells assessed as decrease in Ox-LDL-induced IL-6 mRNA level at 5 uM measured after 22 hrs by RT-PCR analysis; format: functional, cell-based; details: Homo sapiens
[14] = tested on: HUVEC; assay: Downregulation of extracellular ceramide level in LPS-induced HUVEC cells upto 5 uM measured after 22 hrs by ELISA method; format: functional, cell-based; details: Homo sapiens
[15] = tested on: HUVEC; assay: Effect on extracellular S1P level in LPS-induced HUVEC cells upto 5 uM measured after 22 hrs by ELISA method; format: functional, cell-based; details: Homo sapiens
[16] = tested on: HUVEC; assay: Effect on extracellular S1P level in Ox-LDL-induced HUVEC cells upto 5 uM measured after 22 hrs by ELISA method; format: functional, cell-based; details: Homo sapiens
[17] = tested on: HUVEC; assay: Downregulation of intracellular ceramide level in LPS-induced HUVEC cells at 5 uM measured after 22 hrs by ELISA method; format: functional, cell-based; details: Homo sapiens
[18] = tested on: HUVEC; assay: Upregulation of intracellular sphingomyelin level in Ox-LDL-induced HUVEC cells measured after 22 hrs by ELISA method; format: functional, cell-based; details: Homo sapiens, dose <= 5.0 µM

With O=C(NO)c1nc(-c2ccc(COc3ccc(Br)cc3)cc2)no1 the pIC50 [1] was 5.82, the Activity [2] was “Non-Toxic” and the AUC(0-inf) [3] was 228 ng·h/mL. For the same molecule, the MRT last [4] was 4.62 min, the AUC(0-inf) [5] was 809 ng·h/mL and the MRT inf [6] was 21 min. The Activity [7] was 22%, the Activity [8] was “inactive” and the Activity [9] was “Active”. The Activity [10] was “inactive”, the Activity [11] was “Active” and the Activity [12] was “Dose-Dependent Effect”. For the same molecule, the Activity [13] was “Active”, the Activity [14] was “Active” and the Activity [15] was “inactive”. For the same molecule, the Activity [16] was “inactive”, the Activity [17] was “Active” and the Activity [18] was “Dose-Dependent Effect”.
